# Laboratory results as given in PMC5866173 (Journal of natural products, 2017).
# “Also recorded” adds a separate entry of the source.
# Test system: chloroquine/mefloquine-resistant Dd2 strain of Plasmodium falciparum
# Assay type: cell-based
# Settings: Dd2 strain of P. falciparum
row,Compound,antiplasmodial activity (in words)
1,"CC1=CCCC(C)(CC(=O)C[C@]2(C)CCc3cc(O)cc(C)c3O2)OC1 (single isomer, unassigned) [Compound 6, 1-[(S or R)-2,6-dimethyl-2,3,4,7-tetrahydrooxepin-2-yl]-3-[(S)-6-hydroxy-2,8-dimethylchroman-2-yl]propan-2-one]",weak antiplasmodial activity
2,"CC1=CCCC(C)(CC(=O)C[C@]2(C)CCc3cc(O)cc(C)c3O2)OC1 (single isomer, unassigned) [Compound 7, 1-[(R or S)-2,6-dimethyl-2,3,4,7-tetrahydrooxepin-2-yl]-3-[(S)-6-hydroxy-2,8-dimethylchroman-2-yl]propan-2-one]",weak antiplasmodial activity
3,"C/C(=C\CC/C(C)=C/C(=O)C[C@]1(C)CCc2cc(O)cc(C)c2O1)CO [Compound 1, (3E,7E)-9-hydroxy-1-[(S)-6-hydroxy-2,8-dimethylchroman-2-yl]-4,8-dimethylnona-3,7-dien-2-one]",inactive
4,"C/C(=C/CC/C(C)=C/C(=O)C[C@]1(C)CCc2cc(O)cc(C)c2O1)CO [Compound 2, (3E,7Z)-9-hydroxy-1-[(S)-6-hydroxy-2,8-dimethylchroman-2-yl]-4,8-dimethylnona-3,7-dien-2-one]",weak antiplasmodial activity; also recorded: most potent biological activity among these compounds
5,"COc1cc(C)c2c(c1)CC[C@@](C)(CC(=O)/C=C(\C)CC/C=C(\C)CO)O2 [Compound 5, (3E,7E)-9-hydroxy-1-[(S)-6-methoxy-2,8-dimethylchroman-2-yl]-4,8-dimethylnona-3,7-dien-2-one]",weak antiplasmodial activity; also recorded: moderately active

# Same assay, conditions: read-out: IC50 against P. falciparum Dd2; chloroquine-resistant Dd2 strain; 72-hour treatment
row,Compound,IC50 [µM]
1,"(R)-2-[(3E,7E)-9-hydroxy-4,8-dimethylnona-3,7-dien-1-yl]-2,8-dimethyl-2H-chromen-6-ol [Compound 9]",> 117
